The test system of test [1] is ADP-induced platelet aggregation. The experiment in a line: in vitro anti-platelet aggregation induced by ADP (platelet-rich plasma, aggregometer). In kind it is cell-based. The settings on record: Homo sapiens; platelet-rich plasma of healthy volunteers, inductive agent ADP (10 uM), 37° C. The source says: (§1) The inventor conducted the anti-platelet aggregation activity screening for the compounds of the present invention, carried out the anti-platelet aggregation test by using the blood platelet which was closed to human physiological state and was not washed with water, and conducted the activity test of the in vitro anti-platelet aggregation induced by ADP, and also the activity test of the in vitro anti-platelet aggregation induced by AA (arachidonic acid) for some compounds. The present invention firstly discloses the activity test of the in vitro anti-platelet aggregation induced by AA conducted with said type of compounds.
(§2) The anti-platelet aggregation test of the compounds was conducted by the aggregometer (Model 400VS, Chrono-Log, Haverston, Pa.) from Chrono-Log Corp. ADP, AA (arachidonic acid), DMSO and trisodium citrate were purchased from Sigama.
(§3) The fasting venous blood of the subjects was collected, and placed into a 50 mL sampling tube containing 3.8% sodium citrate, and mixed homogeneously in a ratio of 1:9 (v/v) for anticoagulation, and centrifugalized at 300 rpm/min for 20 min.
(§4) The supernatant was taken to obtain platelet-rich blood plasma (PRP). The residual blood was then centrifugalized at 900 rpm/min for 10 min, and the supernatant fluid was taken to obtain platelet-poverty blood plasma (PPP). The analysis of platelet aggregation was conducted by using the aggregometer (Chrono-Log Corp.), wherein PRP and PPP were respectively added to two turbidimetric tubes. In the aggregometer, platelet-poverty blood plasma (PPP) was used as the control group. DMSO was used as the negative control. The turbidimetric tubes were incubated at 37° C. for 3 min. The PRP was stirred with a stirring rod at 900 rpm/min for 10-20 s, and the inductive agent ADP (10 uM) or AA (0.5 mM) was added to PRP, and start to record the aggregated wave patterns. The chart speed of the recorder (Model 707, Chrono-Log, Haverston, Pa., USA) was set up to be 1 cm min^−1, and the aggregation reaction was recorded for not less than 3 min. Finally, the apparatus automatically delineated the aggregation curve and calculated the results, i.e. maximum platelet aggregation rate. When the platelet aggregation was lower than 50% of the control group, the IC50 of the compound was calculated.

For test [2], the system named is AA (arachidonic acid)-induced platelet aggregation. As to the kind of experiment: in vitro anti-platelet aggregation induced by AA (arachidonic acid) (platelet-rich plasma, aggregometer). In kind it is cell-based. The following applies: Homo sapiens; platelet-rich plasma of healthy volunteers, inductive agent AA (0.5 mM), 37° C.
From the text: as §1, §2, §3, §4

With `CCCSc1nc(NCc2ccccc2)c2ncn([C@@H]3O[C@H](CO)[C@@H](O)[C@H]3O)c2n1` [Example 14, 2-propylthio-6-benzylamino-9-β-D-ribofuranosyl purine], it took 216 µM to reach half-maximal inhibition in test [1] (IC50).
Consider `CCCCCCNc1nc(SCCC)nc2c1ncn2[C@@H]1O[C@H](CO)[C@@H](O)[C@H]1O` [Example 8, 2-propylthio-6-n-hexylamino-9-β-D-ribofuranosyl purine], for which the 50% inhibitory concentration (IC50) (usually the midpoint of a concentration-inhibition curve) in test [1] came out at 102 µM.
In turn, `CCCSc1nc(NCc2ccc(OC)cc2)c2ncn([C@@H]3O[C@H](CO)[C@@H](O)[C@H]3O)c2n1` [Example 17, 2-propylthio-6-([4-methoxylbenzyl]amino)-9-β-D-ribofuranosyl purine] had a half-inhibitory concentration (IC50) in test [1] of 181 µM.
In test [1], `CCCSc1nc(NCCc2cccc(OC)c2)c2ncn([C@@H]3O[C@H](CO)[C@@H](O)[C@H]3O)c2n1` [Example 27, 2-propylthio-6-([3-methoxylphenylethyl]amino)-9-β-D-ribofuranosyl purine] returned a half-maximal inhibitory concentration (IC50) of 69 µM.
On to `CCCSc1nc(NC2CCCCC2)c2ncn([C@@H]3O[C@H](CO)[C@@H](O)[C@H]3O)c2n1` [Example 10, 2-propylthio-6-cyclohexylamino-9-β-D-ribofuranosyl purine], for which the IC50 in test [1] came out at 151 µM.
`CCCCSc1nc(NC2CCCCC2)c2ncn([C@@H]3O[C@H](CO)[C@@H](O)[C@H]3O)c2n1` [Example 12, 2-butylthio-6-cyclohexylamino-9-β-D-ribofuranosyl purine] returned a half-inhibitory concentration (IC50) in test [1] of 83 µM.
In the case of `CCSc1nc(NC2CCCCC2)c2ncn([C@@H]3O[C@H](CO)[C@@H](O)[C@H]3O)c2n1` [Example 9, 2-ethylthio-6-cyclohexylamino-9-β-D-ribofuranosyl purine], half-maximal inhibition in test [1] (IC50) required 104 µM.
Consider `CCSc1nc(NCCc2ccccc2)c2ncn([C@@H]3O[C@H](CO)[C@@H](O)[C@H]3O)c2n1` [Example 19, 2-ethylthio-6-phenylethylamino-9-β-D-ribofuranosyl purine], for which the values for the IC50 in test [1] and in test [2] were 29 µM and 30 µM, respectively.
On to `CCSc1nc(NC(C)c2ccccc2)c2ncn([C@@H]3O[C@H](CO)[C@@H](O)[C@H]3O)c2n1` (stereo partly drawn) [Example 16, 2-ethylthio-6-(1-phenylethyl)amino-9-β-D-ribofuranosyl purine], for which inhibition in test [1] was half-maximal at 197 µM (IC50).
For `CCCCSc1nc(NCCc2ccccc2)c2ncn([C@@H]3O[C@H](CO)[C@@H](O)[C@H]3O)c2n1` [Example 21, 2-butylthio-6-phenylethylamino-9-β-D-ribofuranosyl purine], the figures for the 50% inhibitory concentration (IC50) in test [1] and in test [2] were 59 µM and greater than 300 µM, respectively.
For the compound `CSc1nc(NCCc2ccccc2)c2ncn([C@@H]3O[C@H](CO)[C@@H](O)[C@H]3O)c2n1` [Example 18, 2-methylthio-6-phenylethylamino-9-β-D-ribofuranosyl purine], the concentration for half-maximal inhibition (IC50) in test [1] is 36 µM; in test [2], 3 µM.
Turning to `CCCSc1nc(NCCc2ccccc2)c2ncn([C@@H]3O[C@H](CO)[C@@H](O)[C@H]3O)c2n1` [Example 20, 2-propylthio-6-phenylethylamino-9-β-D-ribofuranosyl purine], the concentration for half-maximal inhibition (IC50) in test [1] worked out at 52 µM; in test [2], 44 µM.
Regarding `CCSc1nc(NCCc2cccc(OC)c2)c2ncn([C@@H]3O[C@H](CO)[C@@H](O)[C@H]3O)c2n1` [Example 26, 2-ethylthio-6-([3-methoxylphenylethyl]amino)-9-β-D-ribofuranosyl purine], the results for the concentration for half-maximal inhibition (IC50) in test [1] and in test [2] were 38 µM and greater than 300 µM, respectively.
Compound `CC(C)Sc1nc(NC2CCCCC2)c2ncn([C@@H]3O[C@H](CO)[C@@H](O)[C@H]3O)c2n1` [Example 11, 2-isopropylthio-6-cyclohexylamino-9-β-D-ribofuranosyl purine] had an IC50 in test [1] of 187 µM.
In test [1], `CCCCSc1nc(NCCc2ccc(OC)cc2)c2ncn([C@@H]3O[C@H](CO)[C@@H](O)[C@H]3O)c2n1` [Example 25, 2-butylthio-6-([4-methoxylphenylethyl]amino)-9-β-D-ribofuranosyl purine] gave an IC50 of 93 µM.
Still for that read-out and setting: then `CCSc1nc(NCc2ccccc2)c2ncn([C@@H]3O[C@H](CO)[C@@H](O)[C@H]3O)c2n1` [Example 13, 2-ethylthio-6-benzylamino-9-β-D-ribofuranosyl purine], with 176 µM; and `COc1ccc(CCNc2nc(SC)nc3c2ncn3[C@@H]2O[C@H](CO)[C@@H](O)[C@H]2O)cc1` [Example 22, 2-methylthio-6-([4-methoxylphenylethyl]-amino)-9-β-D-ribofuranosyl purine], with 153 µM.
For the compound `CCSc1nc(NCCc2ccc(OC)cc2)c2ncn([C@@H]3O[C@H](CO)[C@@H](O)[C@H]3O)c2n1` [Example 23, 2-ethylthio-6-([4-methoxylphenylethyl]amino)-9-β-D-ribofuranosyl purine], in test [1], half-maximal inhibition (IC50) required 89 µM.
Take `CCCSc1nc(NCCc2ccc(OC)cc2)c2ncn([C@@H]3O[C@H](CO)[C@@H](O)[C@H]3O)c2n1` [Example 24, 2-propylthio-6-([4-methoxylphenylethyl]amino)-9-β-D-ribofuranosyl purine]: the IC50 in test [1] stood at 267 µM.
In the case of `CCCCSc1nc(NCc2ccccc2)c2ncn([C@@H]3O[C@H](CO)[C@@H](O)[C@H]3O)c2n1` [Example 15, 2-butylthio-6-benzylamino-9-β-D-ribofuranosyl purine], in test [1], the midpoint of inhibition, the IC50, lay at 202 µM.

Values taken from patent publication US9493502B2, “Ribofuranosyl purine compounds, methods for preparing the same and use thereof” (Beijing KBD Pharmaceuticals Co., Ltd., priority 2011, dated 2016).
